Test results from ChEMBL document CHEMBL4513151, “CO-ADD screening of Institut Català d'Investigació Química (Spain) compounds”.
In brackets after ≈: the same amount, converted by molar mass.

Assays:
Staphylococcus aureus = assay: microbe, parasite or virus in culture; conditions: ATCC 43300, 18 h, ASSAY_TEST Inhibition of Bacterial Growth, detection method Absorption (OD600), MEDIA CAMHB, plate type 384well, NBS, CORNING #3640
Description: Antibacterial activity against Staphylococcus aureus MRSA ATCC 43300 (CO-ADD:GP_020); MIC in CAMBH media, using NBS plates, by OD(600)

Acinetobacter baumannii = assay: microbe, parasite or virus in culture; conditions: ATCC 19606, 18 h, ASSAY_TEST Inhibition of Bacterial Growth, detection method Absorption (OD600), MEDIA CAMHB, plate type 384well, NBS, CORNING #3640
Description: Antibacterial activity against Acinetobacter baumannii ATCC 19606 (CO-ADD:GN_034); MIC in CAMBH media using NBS plates, by OD600

Escherichia coli = assay: microbe, parasite or virus in culture; conditions: ATCC 25922, 18 h, ASSAY_TEST Inhibition of Bacterial Growth, detection method Absorption (OD600), MEDIA CAMHB, plate type 384well, NBS, CORNING #3640
Description: Antibacterial activity against Escherichia coli ATCC 25922 (CO-ADD:GN_001); MIC in CAMBH media using NBS plates, by OD(600)

Klebsiella pneumoniae = assay: microbe, parasite or virus in culture; conditions: ATCC 700603, 18 h, ASSAY_TEST Inhibition of Bacterial Growth, detection method Absorption (OD600), MEDIA CAMHB, plate type 384well, NBS, CORNING #3640
Description: Antibacterial activity against Klebsiella pneumoniae MDR ATCC 70063 (CO-ADD:GN_003); MIC in CAMBH media using NBS plates, by OD(600)

Pseudomonas aeruginosa = assay: microbe, parasite or virus in culture; conditions: ATCC 27853, 18 h, ASSAY_TEST Inhibition of Bacterial Growth, detection method Absorption (OD600), MEDIA CAMHB, plate type 384well, NBS, CORNING #3640
Description: Antibacterial activity against Pseudomonas aeruginosa ATCC 27853 (CO-ADD:GN_042); MIC in CAMBH media using NBS plates, by OD(600)

Candida albicans = assay: microbe, parasite or virus in culture; conditions: ATCC 90028, ASSAY_TEST Inhibition of Fungal Growth, detection method Absorption (OD530), plate type 384well, NBS, CORNING #3640
Description: Antifungal activity against Candida albicans ATCC 90028 (CO-ADD:FG_001); MIC in YNB media using NBS plates, by OD630

HEK293 = assay: cells; format: functional; conditions: Homo sapiens, ATCC CRL1573, HEK293; ASSAY_TEST Inhibition of Cell Viability; detection method Resazurin; Fluorescence (ex560/em590); MEDIA DMEM with 10% FBS; plate type 384well; TC; CORNING #3712; time 18 hr

Description for Cryptococcus neoformans: Antifungal activity against Cryptococcus neoformans H99 ATCC 208821 (CO-ADD:FG_002); MIC in YNB media using NBS plates, by Resazurin OD(600-570)

## C[C@]12CC[C@@H](O1)[C@H]1C=C[C@H](OC(=O)c3ccccc3)[C@H]12
Cryptococcus neoformans
  MIC: > 32 µg/mL
Staphylococcus aureus
  MIC: 32 µg/mL (≈ 118 µM)
Acinetobacter baumannii
  MIC: > 32 µg/mL
Escherichia coli
  MIC: > 32 µg/mL
Klebsiella pneumoniae
  MIC: > 32 µg/mL
Pseudomonas aeruginosa
  MIC: > 32 µg/mL
Candida albicans
  MIC: > 32 µg/mL
HEK293
  CC50: > 32 µg/mL
